Assay results from US9085756B2, “Drug screening using islet cells and islet cell progenitors from human embryonic stem cells” (Asterias Biotherapeutic, Inc., priority 2001, dated 2015).

Tested on: hES cells
Experiment: Hepatocyte differentiation of hES cells, morphology
Format: cell-based, human
Conditions: 4 days in medium containing butyrate (after 1% DMSO pre-differentiation)
Description: Undifferentiated hES cells were differentiated into cells having characteristics of human hepatocytes using a strategy to initiate a global differentiation process using DMSO in a subconfluent culture. The cells are then induced to form hepatocyte-like cells by the addition of Na-butyrate.
Briefly, the hES cells were maintained in undifferentiated culture conditions for 2-3 days after splitting. At this time, the cells were 50 to 60% confluent and the medium was exchanged with unconditioned SR medium containing 1% DMSO (Step II). The cultures were fed daily with SR medium for 4 days and then exchanged into unconditioned SR medium containing both 1% DMSO and […] Na-butyrate, with which they were fed daily for 6 days (Step III). They were then replated onto collagen, and cultured in a hepatocyte maturation medium containing a cocktail of hepatocyte-friendly growth factors (Step IV).

SMILES: CCCC(=O)[O-].[Na+] [butyrate, sodium n-butyrate]
- Cells in the culture with large nuclei and granular cytoplasm: more than 80%
- Cells in the culture with large nuclei and granular cytoplasm (listed as sodium n-butyrate): More than 80%
